Results: US3987055A, “Azasteroids compounds and derivatives” (The Board of Regents for the Oklahoma Agricultural & …, priority 1974, dated 1976)
Several values for one entry are separate records, joined by “and”; a condition that tells them apart may be missing. Equal entries are not always repeated.

Key:
KB cells [1] = experiment: relative plating efficiency of KB cells (colony formation, 7 days); format: cell-based, human
Method: The KB cells were plated in plastic tissue culture dishes and grown in a 5% CO2 gas phase incubator for 7 days. The medium was removed, the plates washed with Hanks' salt solution and the cells stained with a 0.5% aqueous crystal violet solution, rinsed and dried. The colonies were counted and the relative plating efficiency calculated using the number of control colonies as 100 percent.

KB cells [2] = experiment: growth inhibition of human tumor KB cell line; format: cell-based; conditions: 10 μg/ml or greater, read-out: concentration at which growth was inhibited
Method: For example, growth of both the human tumor KB* and the mouse L-M** cell lines was inhibited when the cells were grown in media containing 10 μg/ml or greater

KB cells [3] = experiment: colony and cell morphology of KB cells; format: cell-based, human; conditions: 10 and 20 μg/ml
Method: Differences in cell morphology were also observed. […] Since the difference in staining density could be the result of modification of intracellular structures, such as lysosomes, experiments were performed to determine the effect of the compounds on the permeability of lysosomal membrane.

[4] = test system: acid phosphatase, KB and L-M cells; experiment: relative acid phosphatase staining (permeability of lysosomal membrane) of KB and L-M cells; format: cell-based, human (KB) and mouse (L-M); design: key to Relative acid phosphatase staining: light: cells showing only a few scattered granules; medium: more dense but distinct isolated granules were still detected; heavy: a more intense staining with fewer discrete granules; conditions: 20 μg/ml
Method: KB and L-M cells were grown on coverslips in medium 199 with 10% calf serum for the 24 hour growth prior to staining in the presence or absence of compound 5c (20 μg/ml) or compound 5d (20 μg/ml). The cells were washed in Hanks' salt solution, incubated at 37° C in Gomori's substrate solution for 1, 2, or 3 hours, washed, treated with a 1% solution of ammonium sulfide, washed, mounted and observed microscopically. Light staining was designated as cells showing only a few scattered granules; medium staining was more dense but distinct isolated granules were still detected; and heavy staining a more intense staining with fewer discrete granules. Heavy staining denotes increased phosphatase activity.
The acid phosphatase activity was measured in KB and L-M cells grown in medium in the presence or absence compound 5c or 5d (20 μg/ml) for 2 or 24 hours prior to staining (Table 2). Quantitative evaluation of the relative staining intensity of the lysosomes was compared in the treated and untreated cells. […] Thus, cells grown in the presence of compound 5c accumulate the phosphatase substrate within the lysosomes much more rapidly than the control or compound 5d treated cells indicating the compounds ability to alter membrane permeability and thus regulate the accumulation of essential metabolites. Control of this cellular capacity permits regulation of cell division so important in cancer chemotherapy. Since the permeation of the substrate is the rate-limiting step in the phosphatase determination, compound 5c produces a modification of the lysosomal membrane which increased the permeability of the lysosome to the substrate. The results also emphasize the difference in biological activity of compound 5c and 5d type molecules which chemically are similar except at C-3. Differences in the biological activity have been observed when the compounds were tested using various bacteria.

[5] = test system: acid phosphatase, KB and L-M cells; experiment: as above; format: cell-based, human (KB) and mouse (L-M); conditions: control experiment with Triton X-100
L-M cells [6] = experiment: growth inhibition of mouse L-M cell line; format: cell-based
Method: Cells (1 × 10^5 /ml) were added to the "incubated" compound-containing medium.

rat testis tubules [7] = experiment: lysine-U-14C incorporation into protein by rat testis tubules in vitro; format: cell-based
Method: (§1) For these investigations the compounds were diluted in a minimal amount of ethanol and further diluted in saline (0.85%) so that the final concentration was 1 mg/ml. The compounds were placed in solution and gassed under N2 and stored at 5° C until used 2 days later for the in vitro incubation studies. Details of the in vitro incubation procedures may be found in Endocrinology 89:791-800 (1971).
The effects of the compounds on the incorporation of lysine -U-^14 C into trichloroacetic (TCA) precipitable protein of rat testes was investigated by incubating about 200 mg of teased testis tubules from mature rats in a 25 ml Erlenmeyer flask containing 3 ml of Krebs Ringer bicarbonate buffer (pH 7.4), L-lysine-U-^14 C (0.5 μCi; 0.1mM), glucose (10 mM) and 0.25 ml of the azasteroid to be tested. The flasks were incubated for 1 hour at 33° C under 95% O2 : 5% CO2 and the TCA precipitable protein was isolated and an aliquot used to measure radioactivity.
CPM = counts per minute. All compounds were tested in a concentration of […]

rat testis tubules [8] = experiment: glucose oxidation (glucose-U-14C) by rat testis tubules in vitro; format: cell-based
Method: as §1
The effects of these compounds on glucose oxidation by testis tubules was examined by incubating about 200 mg of teased testis tubules from mature rats in a 25 ml Erlenmeyer flask containing 3 ml of Krebs Ringer bicarbonate buffer (pH 7.4), D-glucose-U-^14 C (0.5 μCi; 10mM) and 0.25 ml of the azasteroid (1 mg/ml) to be tested. The flasks were incubated for 2 hours at 33° C under 95% O2 :5% CO2. The reaction was terminated by adding 0.25 ml of 5 N H2 SO4. Carbon dioxide was trapped in 0.25 ml of hydroxide of Hyamine. The radioactivity present in the Hyamine was determined by liquid scintillation spectrometry. This table includes a detailed summary of the results obtained and an average for each compound. […] Thus, the compounds have potential for antifertility activity in the control of wild rodent populations and possibly stray animals such as dogs and cats.
CPM = counts per minute. Glucose-U-^14 C activity was 0.5 millicurie.
All compounds were tested in a concentration of 250 mg per flask.

L-M cells [9] = experiment: uptake and incorporation of 3H-thymidine, 3H-uridine and 14C-leucine by L-M cells; format: cell-based, mouse; conditions: 15 μg/ml
Method: ^3 H-Thymidine (10 μCi), or ^3 H-uridine (10 μCi), or ^14 C-leucine (5 .rho.Ci), was added to suspension cultures of L-M cells (8 × 10^5; /ml) in McCoy's 5a modified medium containing either 0 or 15 μg/ml of compound 5c. The cells were incubated at 37° C. One ml samples were removed at varying intervals and the rates of uptake and incorporation were determined from the liner portion of radioactivity versus time curves.

[10] = individual flask, 250 mg per flask (so in the source), 1 hour, 33° C
[11] = individual flask, 250 mg per flask (so in the source), 2 hours, 33° C

Structure (SMILES): CC12CCN=C1c1ccc3cc(O)ccc3c1CC2 (stereo not shown) [Compound 5c, 1,10,11,11a-tetrahydro-11a-methyl-2H-naphth[1,2-g]indol-7-ol]
- effect on the relative plating efficiency (KB cells [1]; 1 μg/ml): little effect
- activity at 1 µg/mL (KB cells [1]; Homo sapiens, KB, 168 h, 1 μg/ml): 91%
- activity at 10 µg/mL (KB cells [1]; Homo sapiens, KB, 168 h, 10 μg/ml): 38%
- cytotoxicity at 10 µg/mL (KB cells [1]; Homo sapiens, KB, 168 h, 10 μg/ml, 7 days, read-out: cells killed): 62%
- activity at 20 µg/mL (KB cells [1]; Homo sapiens, KB, 168 h, 20 μg/ml): 17%
- cytotoxicity at 20 µg/mL (KB cells [1]; Homo sapiens, KB, 168 h, 20 μg/ml, 7 days, read-out: cells killed): 83%
- minimal effective concentration (KB cells [2]): ≥ 10 µg/mL
- cell division (KB cells [3]): did not divide, or if limited division occurred, only a few small colonies were formed containing a small number of cells
- density of treated cells (KB cells [3]): less uniform density with areas of heavy and light staining
- position of nuclei in treated cells (KB cells [3]): located at the periphery of the cell which contained little cytoplasm
- Relative acid phosphatase staining ([4]; 24 h, 1 hour in substrate): light
- Relative acid phosphatase staining ([4]; 24 h, 2 hours in substrate): medium
- Relative acid phosphatase staining ([4]; 24 h, 3 hours in substrate): heavy
- staining reaction versus control ([4]; 24 h, all three substrate incubation times): more intense staining reaction
- staining intensity versus untreated cells ([4]; cells treated for 2 hours): indistinguishable from untreated cells
- induction of synthesis of acid phosphatase [5]: does not induce synthesis of acid phosphatase in the cell
- growth rate versus control (L-M cells [6]; 1 μg/ml): same growth rate as the control
- growth inhibition at 20 μg/ml (L-M cells [6]; 20 μg/ml): marked inhibition
- increase in cell numbers (L-M cells [6]; 20 μg/ml, after three days): no significant increase in cell numbers
- activity at 10 µg/mL (L-M cells [6]; Mus musculus, 96 h, 10 μg/ml, fourth day, read-out: growth as % of the control): 50%
- minimal effective concentration (L-M cells [6]; Mus musculus, L-M cells, 10 μg/ml or greater, read-out: concentration at which growth was inhibited): ≥ 10 µg/mL
- AVERAGE OF TWO FLASK lysine incorporation (rat testis tubules [7]; average of two flasks): 1,944 CPM/100 mg tissue
- lysine incorporation into protein per 100 mg (rat testis tubules [7]; [10]): 1,616 CPM/100 mg and 2,273 CPM/100 mg
- lysine incorporation into protein per flask (rat testis tubules [7]; [10]): 3,325 CPM/FLASK and 4,575 CPM/FLASK
- AVERAGE glucose oxidation (rat testis tubules [8]; average of flasks): 8,181 CPM/100 mg TISSUE
- depression of glucose oxidation in vitro (rat testis tubules [8]; in words): depressed glucose oxidation in vitro more than compounds 4 c and 11b
- GLUCOSE OXIDATION per 100 mg (rat testis tubules [8]; [11]): 6,046 CPM/100 mg and 10,317 CPM/100 mg
- GLUCOSE OXIDATION per flask (rat testis tubules [8]; [11]): 12,450 CPM/FLASK and 21,027 CPM/FLASK
- % DEVIATION FROM CONTROL, glucose oxidation (rat testis tubules [8]; versus saline, 120 min): +20.8%
- uptake of radioactive thymidine, uridine, and leucine (L-M cells [9]): inhibited
- Cell Pool (L-M cells [9]; 3H-thymidine): 700 Cpm/8×10^5 cells/hr
- Rate of incorporation (L-M cells [9]; 3H-thymidine): 1,300 Cpm/8×10^5 cells/hr
- Rate of uptake (L-M cells [9]; 3H-thymidine): 2,000 Cpm/8×10^5 cells/hr
- Cell Pool (L-M cells [9]; 3H-uridine): 1,600 Cpm/8×10^5 cells/hr
- Rate of incorporation (L-M cells [9]; 3H-uridine): 1,400 Cpm/8×10^5 cells/hr
- Rate of uptake (L-M cells [9]; 3H-uridine): 3,000 Cpm/8×10^5 cells/hr
- Cell Pool (L-M cells [9]; 14C-leucine): 1,200 Cpm/8×10^5 cells/hr
- Rate of incorporation (L-M cells [9]; 14C-leucine): 2,800 Cpm/8×10^5 cells/hr
- Rate of uptake (L-M cells [9]; 14C-leucine): 4,000 Cpm/8×10^5 cells/hr
- inhibition at 15 µg/mL (L-M cells [9]; Mus musculus, read-out: reduction of radioactivity present in the pool for each of the precursors): ~66%
